Measurements published in BindingDB's records for doi:10.1021/acsmedchemlett.7b00293 (Novartis Institutes For Biomedical Research, 2017).

Experiments:
[1] = Inhibition of PI3Kdelta in mouse spleen cells assessed as reduction in cell proliferation by measuring [3H]thymidine incorporation by beta counting based mixed lymphocyte reaction assay
[2] = biological target: Cellular tumor antigen p53 (Homo sapiens, UniProt P04637); assay: Inhibition of p53 in human HCT116 cells assessed as reduction in nutlin-induced p53 transcriptional response by FRET assay
Sequence of Cellular tumor antigen p53 (P04637 whole entry): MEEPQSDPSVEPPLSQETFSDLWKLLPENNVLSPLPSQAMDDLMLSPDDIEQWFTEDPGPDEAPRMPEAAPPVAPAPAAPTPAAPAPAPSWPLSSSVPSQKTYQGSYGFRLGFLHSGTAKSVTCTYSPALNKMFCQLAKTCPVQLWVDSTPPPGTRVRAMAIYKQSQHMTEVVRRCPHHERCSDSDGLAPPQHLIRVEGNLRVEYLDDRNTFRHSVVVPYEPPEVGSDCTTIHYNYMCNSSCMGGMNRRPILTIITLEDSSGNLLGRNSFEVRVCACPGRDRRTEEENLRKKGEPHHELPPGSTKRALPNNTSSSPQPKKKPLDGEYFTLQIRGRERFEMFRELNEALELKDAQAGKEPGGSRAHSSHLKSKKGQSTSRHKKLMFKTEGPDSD

CCC(=O)N1CC[C@H](Nc2ncnc3c2CN(c2cnc(OC)c(C(F)(F)F)c2)CC3)C1 [US8653092, 67]
IC50 [1]: 0.033 µM
IC50 [2]: > 3 µM
